This is an account of results in patent US20090299063A1, “Inhibitors for Extracellular Signal-Regulated Kinase Docking Domains and Uses Therefor” (priority 2005, published 2009).

Entries after “also recorded” stand apart in the source; their conditions may differ.

One experiment deals with T1, ERK2 (Mus musculus, UniProt P63085).
T1 construct: (His)6; made in house; host or cells: bacteria
As to the kind of experiment: ERK2 fluorescence titration (quenching of intrinsic fluorescence). The experiment is classed as binding. The conditions noted are these: for quenching of ERK2 fluorescence (in words): wild type ERK2, excitation 295 nm. The text has this:
ERK2 was purified as described previously (46) with some modifications. Briefly, (His)6-tagged ERK2 was expressed in bacteria and the cells were harvested in BugBuster protein extraction reagent (EMD Biosciences, San Diego, Calif.). Clarified lysates were loaded onto a Talon Co^2+-IMAC affinity chromatography resin column (BD Biosciences, San Jose, Calif.) and the bound protein was eluted using increasing concentrations of imidazole. SDS-PAGE electrophoresis and Coomassie blue staining were used to identify the eluted fractions containing the ERK2 protein. The ERK2 protein concentration was determined using Bradford Reagent (Sigma).
Experiments will measure the changes in the intrinsic ERK2 fluorescence due to the presence of aromatic amino acids, with the indole group of tryptophan being the major fluorophore with absorption and emission maxima around 280 and 340 nanometers (nm), respectively. Fluorescence spectra were recorded with a Luminescence Spectrometer LS50 (Perkin Elmer, Boston, Mass.). For all experiments, ERK2 protein was diluted into 20 mM Tris-HCl, pH 7.5. Titrations were performed by increasing the test compound concentration while maintaining the ERK2 protein concentration at […]. […] The excitation wavelength was 295 nm and fluorescence was monitored from 300 to 500 nm. All reported fluorescence intensities are relative values and are not corrected for wavelength variations in detector response. Dissociation constants, KD, were determined using reciprocal plots, 1/v vs 1/[I], where v represents the percent occupied sites calculated assuming fluorescence quenching to be directly proportion to the percentage of occupied binding sites, [1] represents the concentration of the inhibitor compound and the slope of the curve equals the KD (48-49).
ERK2 contains three tryptophans, which have intrinsic fluorescence.

Experiment [1] deals with HT1080 fibrosarcoma cells. Put plainly: Cell proliferation, HT1080 cells. The experiment is classed as cell-based, human. The conditions noted are these: HT1080, data not shown. As for the experimental part: (§1) Two methods were used to determine cell proliferation and survival based on colony formation. First, HeLa cells were grown to 70-80% confluence and then treated for 16 hours in the absence (DMSO only) or presence of active compounds. The next day cells were trypsinized, replated (1000-2000 cells per 10 cm culture dish) in regular media and allowed to grow for 8-14 days. Cells then were fixed for 10 minutes in 4% paraformaldehyde and stained with 0.2% crystal violet (in 20% methanol) for 1-2 minutes. Cells were washed several times with distilled water and colonies formed of at least 40 cells were counted. In the second method, growing cells were trypsinized and replated (500-1000 cells per 35 or 60 mm well, respectively) in the presence or absence of various concentrations of the test compounds. Following incubation for 8-14 days, cells were fixed, stained with crystal violet, and counted as described above.
(§2) Thus, several test compounds that show maximal inhibition of ERK substrates are also effective inhibitors of proliferation in cultured cancer cell lines.

In another experiment the test system is HeLa cells. Put plainly: Colony formation assay, HeLa cells. The format is cell-based, human. The conditions noted are these: FIG. 8A, 10 cm plates, 100 mM (printed) compound. As for the experimental part: (§3) HeLa, A549, or SUM-159 cells were plated at a low density of 200-400 cells per well in the absence or presence of putative ERK docking domain inhibitors. Cell colonies were stained with crystal violet and counted after 6-10 days. In FIG. 8A cells were grown on 10 cm plates in the absence (−) or presence of […] of compound 67, 36, 68, 81, or 76. Colony formation dose response in the presence of the indicated concentrations of compound 76 (closed squares) or 81 (open squares) for Hela cells ([…]) (FIG. 8B), A549 cells (50 mM) (FIG. 8C), or SUM-159 cells (50 mM) (FIG. 8D).
as §1
The effects of the active compounds on cell proliferation and survival were tested using a colony formation assay.
as §2

The test system of experiment [2] is SUM-159 estrogen-receptor negative breast cancer cell line. Put plainly: Colony formation assay, SUM-159 cells. The following applies: SUM-159, FIG. 8D. The experiment is classed as cell-based, human. The procedure:
as §3
as §1, with “In the second method, growing cells were trypsinized and replated (500-1000 cells per 35 or 60 mm well, respectively) in the presence or absence of various concentrations of the test compounds.” left out, “above. […]” for “above.”

Experiment [3] deals with dually phosphorylated ERK1/2 (ppERK1/2). Put plainly: ERK1/2 phosphorylation on activating sites (ppERK1/2), immunoblot of EGF-stimulated HeLa cells. The format is cell-based, human. As for the experimental part:
In FIGS. 4A-4B HeLa cells were treated with EGF for 5 minutes with or without […] of test compounds. […] The far left lane is the control (−) with no EGF. […] The control (C) is EGF only treatment. In FIG. 4B cells pretreated with increasing concentrations of compound 76 were stimulated with EGF. ELK-1 phosphorylation on Ser383 (pELK-1) was measured by immunoblotting. […] Protein lysates were separated by SDS-PAGE and immunoblotted simultaneously for phosphorylated ELK-1 (pELK-1, Ser383), dually phosphorylated ERK1/2 (ppERK1/2), and a-tubulin as a protein loading control. […] The control (C) is EGF only treatment.
(§4) The lysates then were diluted with an equal volume of 2× SDS-sample buffer and the proteins were separated on SDS-PAGE for immunoblot analysis. Immunoblot analysis was done as previously described (41-43).
(In general: In western blotting, separated proteins are transferred to a membrane and probed.)

Experiment [4] has as its system ERK-specific phosphorylation of Elk-1 on Ser383. Put plainly: ERK-mediated Elk-1 phosphorylation, immunoblot of EGF-stimulated HeLa cells. The format is cell-based, human. The procedure:
In FIGS. […] The far left lane is the control (−) with no EGF. […] The control (C) is EGF only treatment. In FIG. 4B cells pretreated with increasing concentrations of compound 76 were stimulated with EGF. ELK-1 phosphorylation on Ser383 (pELK-1) was measured by immunoblotting. […] Protein lysates were separated by SDS-PAGE and immunoblotted simultaneously for phosphorylated ELK-1 (pELK-1, Ser383), dually phosphorylated ERK1/2 (ppERK1/2), and a-tubulin as a protein loading control. […] The control (C) is EGF only treatment.
as §4
Compounds that were identified using the 3D structure of phosphorylated ERK2 also were tested.

Experiment [5] concerns ERK-mediated phosphorylation of Rsk-1 on Thr573. As to the kind of experiment: ERK-mediated Rsk-1 phosphorylation, immunoblot of EGF-stimulated HeLa cells. The format is cell-based, human.
The subject of the next experiment is colony formation. As to the kind of experiment: Colony formation assay of compounds 86-98 (cell line not given). The experiment is classed as cell-based. The following applies: Table 3. The procedure: Cell colonies were stained with crystal violet and counted after 6-10 days.
Cells then were fixed for 10 minutes in 4% paraformaldehyde and stained with 0.2% crystal violet (in 20% methanol) for 1-2 minutes.

Setting [6] is: increasing doses of compound, EGF stimulation.
The mark [7] stands for this setting: 75 mM (printed) test compound 30 minutes, EGF 5 minutes.

T1 sequence (P63085 whole entry): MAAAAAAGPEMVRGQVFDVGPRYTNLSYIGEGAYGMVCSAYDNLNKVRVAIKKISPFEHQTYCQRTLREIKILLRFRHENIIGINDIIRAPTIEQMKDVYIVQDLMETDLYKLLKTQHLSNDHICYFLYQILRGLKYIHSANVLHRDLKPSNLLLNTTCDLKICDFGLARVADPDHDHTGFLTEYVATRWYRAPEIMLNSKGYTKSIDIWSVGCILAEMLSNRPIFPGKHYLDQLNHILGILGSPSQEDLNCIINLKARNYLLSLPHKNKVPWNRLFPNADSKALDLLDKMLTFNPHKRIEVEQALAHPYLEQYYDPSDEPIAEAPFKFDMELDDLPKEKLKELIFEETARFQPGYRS

As for `O=C(CCN1CCN(C/C=C/c2ccccc2)CC1)Nc1ccc(Cl)cc1` [Compound 81], the “quenching of ERK2 fluorescence (in words)” value (“quenching” below) at ERK2 is “quenching only occurs to a small extent at the higher concentrations”. The “inhibition of cell proliferation (in words)” value in experiment [1] and in experiment [2] was “inhibition of cell proliferation” throughout. In addition, the “effect on colony formation / cell proliferation (in words)” value in the experiment with HeLa cells was “completely inhibited cell proliferation”.

For `CCOc1ccc(C=C2SC(=O)N(CCN)C2=O)cc1` [Compound 76], the “effect on ERK1/2 phosphorylation on its activating sites” value in experiment [3] (setting [6]) is listed as “largely unaffected”. The “y-intercept of reciprocal plot (indicating a single binding site)” value on ERK2 (wild type ERK2) was found to be 1.8. On ERK2, the “quenching” value was “strong quenching of fluorescence”. The “effect on ERK-mediated Elk-1 phosphorylation (Ser383)” value in experiment [4] (setting [6]) is reported as “inhibited ERK-mediated Elk-1 phosphorylation”. In addition, the “inhibition of cell proliferation (in words)” value in experiment [1] and in experiment [2] was “inhibition of cell proliferation” throughout. The “effect on ERK-mediated Rsk-1 phosphorylation (in words)” value in experiment [5] is given as “highest inhibition of Rsk-1 phosphorylation”. Moreover, the “effect on colony formation / cell proliferation (in words)” value with HeLa cells is on record as “completely inhibited cell proliferation”.

By IC50 is commonly meant the concentration that gives 50% inhibition. Higher therefore signals weaker potency in that assay. As for `COc1cc(C=C2NC(=O)NC2=O)ccc1OCc1ccc(Br)cc1` [Compound 95], in experiment [3] (setting [7]), the “effect on ERK1/2 phosphorylation (ppERK1/2)” value is “little effect on ERK1/2 phosphorylation”. The “quenching” value at ERK2 is “quenched ERK2 fluorescence; also recorded: more effective in quenching”. In addition, the “effect on EGF-mediated ELK-1 phosphorylation (Ser383)” value in experiment [4] (setting [7]) is “showed evidence for inhibiting ERK-mediated ELK-1 phosphorylation; also recorded: inhibited EGF-mediated ELK-1 phosphorylation”. Also, in the experiment on colony formation, the IC50 is more than 100 µM.

Regarding `N=C(N)Nc1nc(C2COc3ccccc3O2)cs1` (stereo not drawn) [Compound 36], the “effect on ERK-mediated Rsk-1 phosphorylation (in words)” value in experiment [5] is listed as “little effect on ERK substrate phosphorylation; also recorded: little effect on ERK-mediated Rsk-1 phosphorylation”. The “effect on colony formation / cell proliferation (in words)” value in the experiment with HeLa cells was “subtle inhibition of colony formation; also recorded: little effect on colony formation”.
